Data taken from ChEMBL document CHEMBL1201862, “PubChem BioAssay data set” (2004).
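Compound exposure: 48 hours, 5 concentrations, 96-well plates. GI50: concentration for 50% inhibition of growth.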 Activity calls are given as the source filed them. Cut-off read from the data, not from the text of the source: active = GI50 up to about 1.1 µM and inactive = higher.

Tests used:
Test in all cases: NCI tumour cell line growth inhibition, 48 h
[1] = test system: ACHN
[2] = test system: CAKI-1
[3] = test system: COLO 205
[4] = test system: EKVX
[5] = test system: HCT-116
[6] = test system: HOP-62
[7] = test system: M14
[8] = test system: MOLT-4
[9] = test system: Malme-3M
[10] = test system: NCI-H226
[11] = test system: NCI-H23
[12] = test system: SF-268
[13] = test system: SF-539
[14] = test system: SN12C
[15] = test system: SNB-75
[16] = test system: SNB-78
[17] = test system: U-251
[18] = test system: OVCAR-8

Compound | GI50 [1] | GI50 [2] | GI50 [3] | GI50 [4] | GI50 [5] | GI50 [6] | GI50 [7] | GI50 [8] | GI50 [9] | GI50 [10] | GI50 [11] | GI50 [12] | GI50 [13] | GI50 [14] | GI50 [15] | GI50 [16] | GI50 [17] | GI50 [18]
CCN(CC)c1ccc(C(=C2C=CC(=[N+](CC)CC)C=C2)c2ccccc2)cc1 | 0.0313 µM (active) | 0.164 µM (active) | 0.0307 µM (active) | 0.108 µM (active) | 0.0324 µM (active) | 0.102 µM (active) | 0.0163 µM (active) | 0.0151 µM (active) | 0.0304 µM (active) | 0.023 µM (active) | 0.0283 µM (active) | 0.0366 µM (active) | 0.0462 µM (active) | 0.0254 µM (active) | 0.0586 µM (active) | 0.044 µM (active) | 0.0234 µM (active) | –
c1ccc2c3nc(C4CCCC4)nc-3c(NC3CCCC3)[nH]c2c1 | 25.7 µM (inactive) | – | 19 µM (inactive) | 57.4 µM (inactive) | 5.66 µM (inactive) | 19.1 µM (inactive) | 2.98 µM (inactive) | 6 µM (inactive) | 16.6 µM (inactive) | 24.7 µM (inactive) | 15.7 µM (inactive) | 16.9 µM (inactive) | 15.3 µM (inactive) | 32.7 µM (inactive) | 66.1 µM (inactive) | 45.3 µM (inactive) | 3.23 µM (inactive) | 6.87 µM (inactive)
O=c1c2cc3ccccc3n2c(=O)c2cc3ccccc3n12 | > 100 µM (inactive) | > 100 µM (inactive) | – | > 100 µM (inactive) | > 100 µM (inactive) | – | > 100 µM (inactive) | > 100 µM (inactive) | > 100 µM (inactive) | > 100 µM (inactive) | > 100 µM (inactive) | > 100 µM (inactive) | > 100 µM (inactive) | > 100 µM (inactive) | > 100 µM (inactive) | > 100 µM (inactive) | > 100 µM (inactive) | > 100 µM (inactive)
O=P(c1ccccc1)(c1ccccc1)C1CC=C2CCCCCC2C1 (stereo unspecified) | – | 23.7 µM (inactive) | 24.1 µM (inactive) | 37.9 µM (inactive) | 19.6 µM (inactive) | – | 21.8 µM (inactive) | 18.8 µM (inactive) | 38.9 µM (inactive) | 26.3 µM (inactive) | 30.2 µM (inactive) | 23.3 µM (inactive) | > 10 µM (inactive) | 30.6 µM (inactive) | 25.1 µM (inactive) | 40.2 µM (inactive) | 67 µM (inactive) | 31 µM (inactive)
Cc1nc2ccccc2c(=O)n1-c1ccccc1I | > 100 µM (inactive) | > 100 µM (inactive) | > 100 µM (inactive) | 70.6 µM (inactive) | > 100 µM (inactive) | > 100 µM (inactive) | > 100 µM (inactive) | > 100 µM (inactive) | > 100 µM (inactive) | > 100 µM (inactive) | > 100 µM (inactive) | > 100 µM (inactive) | – | > 100 µM (inactive) | 46.2 µM (inactive) | > 100 µM (inactive) | > 100 µM (inactive) | > 100 µM (inactive)
O=c1c2cc(Br)ccc2[nH]c(=S)n1-c1ccc(Br)cc1 | > 100 µM (inactive) | – | > 100 µM (inactive) | > 100 µM (inactive) | 89.7 µM (inactive) | 67.6 µM (inactive) | – | > 100 µM (inactive) | > 100 µM (inactive) | > 100 µM (inactive) | > 100 µM (inactive) | > 100 µM (inactive) | 97.1 µM (inactive) | 75 µM (inactive) | 12.1 µM (inactive) | > 100 µM (inactive) | 47.3 µM (inactive) | 31 µM (inactive)
O=C(CCc1nnc(S)[nH]1)NC12CC3CC(CC(C3)C1)C2 | > 100 µM (inactive) | > 70.5 µM (inactive) | > 100 µM (inactive) | > 100 µM (inactive) | > 100 µM (inactive) | > 100 µM (inactive) | > 100 µM (inactive) | – | > 100 µM (inactive) | > 100 µM (inactive) | > 100 µM (inactive) | > 10 µM (inactive) | > 100 µM (inactive) | > 100 µM (inactive) | > 100 µM (inactive) | > 100 µM (inactive) | > 100 µM (inactive) | > 100 µM (inactive)
O=CCCCC(Sc1ccccc1)Sc1ccccc1 | 16.3 µM (inactive) | 56.8 µM (inactive) | 23.5 µM (inactive) | 31.1 µM (inactive) | 12.4 µM (inactive) | > 100 µM (inactive) | 22.9 µM (inactive) | 12.5 µM (inactive) | – | – | 11.5 µM (inactive) | 18.4 µM (inactive) | – | 22 µM (inactive) | 18.2 µM (inactive) | 15.3 µM (inactive) | 15.5 µM (inactive) | 17.4 µM (inactive)
COC(=O)C(=O)C(C#N)c1ccc(CC#N)cc1 (stereo unspecified) | > 100 µM (inactive) | > 100 µM (inactive) | – | > 100 µM (inactive) | > 100 µM (inactive) | – | > 100 µM (inactive) | > 100 µM (inactive) | > 100 µM (inactive) | > 100 µM (inactive) | > 100 µM (inactive) | > 100 µM (inactive) | > 100 µM (inactive) | > 100 µM (inactive) | > 100 µM (inactive) | > 100 µM (inactive) | > 100 µM (inactive) | –
